Where two headings read alike, the source gives them in different places.
Legend:
Assay in all cases: In vitro combination study with Compound 1, Cell Titer-Glo (ATP) cell viability, 72 h;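 for Call, anti-proliferative effect of combination with Compound 1, A549: Ten-by-ten dose matrices of the two agents in duplicate, compounds added 16 h post-plating, activity relative to DMSO vehicle wells, call reflects synergy evaluation from luminescence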;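 for Call, anti-proliferative effect of combination with Compound 1, COLO205: Ten-by-ten dose matrices of both agents in duplicate plus single-agent dilutions, luminescent ATP read-out, percent activity per well relative to DMSO vehicle wells, synergy call from these matrices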;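 for Call, anti-proliferative effect of combination with Compound 1, H460: Ten-by-ten dose matrices of both drugs alongside single-agent dilutions, luminescence read 72 hours after compound addition, percent activity per well versus vehicle (DMSO) plate controls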;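 for Call, anti-proliferative effect of combination with Compound 1, HCT116: combination call from 10×10 dose matrices in duplicate, graded by synergy, with percent activity per well relative to DMSO vehicle controls on the same plate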;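 for Call, anti-proliferative effect of combination with Compound 1, SW620: Ten-by-ten dose matrices of both drugs in 384-well plates, luminescent ATP read-out, synergy evaluated against single-agent and DMSO vehicle controls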
COLO205 cancer cells = assay type: cell-based, human
SW620 cancer cells = assay type: cell-based
Description: (§1) Each combination pair was evaluated in an individual 384-well plate which contained variable doses of both compounds as single agents, as well as two, ten-by-ten matrices (in duplicate) that contained mixtures of the two test compounds. In brief, compounds were added to the cell test plates 16 hours after cell plating and then assessed for viability 72 hours later. Continuous cultures of tumor cells were maintained under standard cell culturing conditions (i.e. in a humidified chamber set at 37° C., containing atmosphere 5% carbon dioxide). […] Seventy-two hours after compound addition, ATP levels were measured to assess cell viability. Plating densities were chosen to ensure optimal linear growth over the 72 hour period.
(§2) Compound dilution and compound delivery to the assay plates were done on HighRes Robotic System (HighRes Biosolutions, Woburn, Mass., USA) with Echo™ Liquid Handler (Labcyte, Sunnyvale, Calif., USA). […] Next, these were used for compound transfer into cell assay plates. All wells were back-filled to give a constant percentage of DMSO.
(§3) The final DMSO concentration was held constant in all wells across the plate and was maintained at less than 0.5%. […] Cells treated with vehicle (DMSO) in two rows, or single compound serial dilutions in one plate columns/row served as the untreated control and single compound controls, respectively.
(§4) Compound activity in A549, COLO205, H460, HCT116, SW48, SW620 cancer cell lines was assessed using Cell Titer-Glo® (Promega [Madison, Wis., USA]). After 72 hours incubation, the plates were treated as per package insert protocol for the Promega Luminescence ATP Detection Systems. Briefly, 25 μL of cell lysis/substrate solution (provided in kit form) was added to each well and the plate was incubated at room temperature for 10 minutes. Luminescence was measured using a PHERAstar multi-label counter (BMG Labtech [Ortenberg, Germany]) or LEADseeker (GE Healthcare Life Sciences [Piscataway, N.J., USA]).
(§5) Numerical luminescence values were analyzed to generate EC50 curves and evaluate synergy. Raw Data reader files were uploaded along with automation workfiles that defined the plate and well contents. Percent activities were calculated for each well versus plate controls.
(§6) Each plate representing a single drug combination was analyzed separately. First, the viability measurements were normalized by scaling the data so that the median of the negative controls was 0 and the median of the positive controls was 100.
(§7) For the combination analysis, a response surface model was used to describe the relationship between the normalized viability and the drug concentrations. The data were fit to the model by minimizing the residual sum of squares. Based on the fitted response surface, plots of constant viability, called isobolograms, were produced.
(§8) The Combination Index and Nonlinear Blending were used as measures of drug synergy. To calculate Combination Index the 50% isobologram (which is the dose contour that has 50% viability) was used. […] A standard procedure was created to produce a call in order to characterize the viability effects for each combination (synergy, additivity, subadditivity, or antagonism). If the Combination Index existed then these measures were used to make the call.

HCT116 cancer cells = assay type: cell-based
Description: as §1, §2, §3, §4, §5, §6, §7, §8

A549 cancer cells = assay type: cell-based
H460 cancer cells = assay type: cell-based
Description: as §1, §2, §3, §4, §5, §6, §7, §8

[1] = Table 5 drug combined with Compound 1, 72 h
[2] = DNA damaging agent combined with Compound 1, 72 h

| Compound | Call, anti-proliferative effect of combination with Compound 1, COLO205 (COLO205 cancer cells; [1]) | Call, anti-proliferative effect of combination with Compound 1, SW620 (SW620 cancer cells; [1]) | Call, anti-proliferative effect of combination with Compound 1, HCT116 (HCT116 cancer cells; [1]) | Call, anti-proliferative effect of combination with Compound 1, A549 (A549 cancer cells; [1]) | Call, anti-proliferative effect of combination with Compound 1, COLO205 (COLO205 cancer cells; [2]) | Call, anti-proliferative effect of combination with Compound 1, H460 (H460 cancer cells; [1]) | also measured |
| --- | --- | --- | --- | --- | --- | --- | --- |
| Cc1cc2c(C(C)C)c(O)c(O)c(C=O)c2c(O)c1-c1c(C)cc2c(C(C)C)c(O)c(O)c(C=O)c2c1O [AT101] | – | – | – | – | – | – | Call, anti-proliferative effect of combination with Compound 1, COLO205 (COLO205 cancer cells): Additivity (key: Inconclusive: Any; Additivity: 0.7 to 1.3; Synergy: 0 to 0.7; Subadditivity: 1.3 to 2; Antagonism: >2); Call, anti-proliferative effect of combination with Compound 1, SW620 (SW620 cancer cells): Additivity (key: Inconclusive: Any; Additivity: 0.7 to 1.3; Synergy: 0 to 0.7; Subadditivity: 1.3 to 2; Antagonism: >2); Call, anti-proliferative effect of combination with Compound 1, HCT116 (HCT116 cancer cells): Additivity (key: Inconclusive: Any; Additivity: 0.7 to 1.3; Synergy: 0 to 0.7; Subadditivity: 1.3 to 2; Antagonism: >2); Call, anti-proliferative effect of combination with Compound 1, A549 (A549 cancer cells): Additivity (key: Inconclusive: Any; Additivity: 0.7 to 1.3; Synergy: 0 to 0.7; Subadditivity: 1.3 to 2; Antagonism: >2); Call, anti-proliferative effect of combination with Compound 1, H460 (H460 cancer cells): Additivity (key: Inconclusive: Any; Additivity: 0.7 to 1.3; Synergy: 0 to 0.7; Subadditivity: 1.3 to 2; Antagonism: >2) |
| CCNC(=O)c1noc(-c2cc(C(C)C)c(O)cc2O)c1-c1ccc(CN2CCOCC2)cc1 [AUY-922] | Additivity (0.7 to 1.3) | Additivity (0.7 to 1.3) | Additivity (0.7 to 1.3) | Additivity (0.7 to 1.3) | – | – | – |
| CN1CC[C@H](c2c(O)cc(O)c3c(=O)cc(-c4ccccc4Cl)oc23)[C@H](O)C1 [Alvocidib] | Additivity (0.7 to 1.3) | Subadditivity (1.3 to 2) | Additivity (0.7 to 1.3) | Additivity (0.7 to 1.3) | – | – | – |
| C[C@@]1(CO)[C@H](O)CC[C@@]2(C)[C@H]1CC[C@H]1C[C@@H]3C[C@@]12CC[C@]3(O)COC(=O)CN.Cl [Aphidicolin glycinate] | – | – | – | – | Additivity (0.7 to 1.3) | – | Call, anti-proliferative effect of combination with Compound 1, SW620 (SW620 cancer cells; [2]): Additivity (0.7 to 1.3); Call, anti-proliferative effect of combination with Compound 1, HCT116 (HCT116 cancer cells; [2]): Synergy (0 to 0.7); Call, anti-proliferative effect of combination with Compound 1, A549 (A549 cancer cells): Additivity (key: Inconclusive: Any; Additivity: 0.7 to 1.3; Synergy: 0 to 0.7; Subadditivity: 1.3 to 2; Antagonism: >2); Call, anti-proliferative effect of combination with Compound 1, H460 (H460 cancer cells; [2]): Additivity (0.7 to 1.3) |
| Nc1cc(C(F)(F)F)c(-c2cc(N3CCOCC3)nc(N3CCOCC3)n2)cn1 [BKM-120] | Additivity (0.7 to 1.3) | Additivity (0.7 to 1.3) | Additivity (0.7 to 1.3) | Additivity (0.7 to 1.3) | – | Additivity (0.7 to 1.3) | – |
| CO/C1=C\C(C)=C\[C@@H](C)[C@@H](O)[C@@H](C)C/C(C)=C/C=C/[C@H](OC)[C@@H]([C@@H](C)[C@@H](O)[C@H](C)[C@@]2(O)C[C@@H](O)[C@H](C)[C@@H](C(C)C)O2)OC1=O [Bafilomycin A] | Subadditivity (1.3 to 2) | Additivity (0.7 to 1.3) | Additivity (0.7 to 1.3) | – | – | Additivity (0.7 to 1.3) | Call, anti-proliferative effect of combination with Compound 1, A549 (A549 cancer cells): Additivity (key: Inconclusive: Any; Additivity: 0.7 to 1.3; Synergy: 0 to 0.7; Subadditivity: 1.3 to 2; Antagonism: >2) |
| C[C@H]1CCC/C=C/[C@@H]2C[C@H](O)C[C@H]2[C@H](O)/C=C/C(=O)O1 [Brefeldin A] | – | – | – | – | Subadditivity (1.3 to 2) | – | Call, anti-proliferative effect of combination with Compound 1, SW620 (SW620 cancer cells; [2]): Additivity (0.7 to 1.3); Call, anti-proliferative effect of combination with Compound 1, HCT116 (HCT116 cancer cells; [2]): Additivity (0.7 to 1.3); Call, anti-proliferative effect of combination with Compound 1, A549 (A549 cancer cells; [2]): Additivity (0.7 to 1.3); Call, anti-proliferative effect of combination with Compound 1, H460 (H460 cancer cells; [2]): Additivity (0.7 to 1.3) |
| CS(=O)(=O)OCCCCOS(C)(=O)=O [Busulfan] | – | – | – | – | Synergy (0 to 0.7) | – | – |
| C=CCNC1=C2C[C@@H](C)C[C@H](OC)[C@H](O)[C@@H](C)/C=C(\C)[C@H](OC(N)=O)[C@@H](OC)/C=C\C=C(/C)C(=O)NC(=CC1=O)C2=O [Compound 17-AAG] | Additivity (0.7 to 1.3) | Additivity (0.7 to 1.3) | Additivity (0.7 to 1.3) | Additivity (0.7 to 1.3) | – | Additivity (0.7 to 1.3) | – |
| CO[C@H]1/C=C\C=C(/C)C(=O)NC2=CC(=O)C(NCCN(C)C)=C(C[C@@H](C)C[C@H](OC)[C@H](O)[C@@H](C)/C=C(\C)[C@@H]1OC(N)=O)C2=O [Compound 17-DMAG] | Additivity (0.7 to 1.3) | Additivity (0.7 to 1.3) | Additivity (0.7 to 1.3) | Subadditivity (1.3 to 2) | – | Additivity (0.7 to 1.3) | – |
| Nc1ccn([C@@H]2O[C@H](CO)[C@@H](O)[C@@H]2O)c(=O)n1 [Cytarabine] | – | – | – | – | Synergy (0 to 0.7) | – | Call, anti-proliferative effect of combination with Compound 1, SW620 (SW620 cancer cells; [2]): Synergy (0 to 0.7); Call, anti-proliferative effect of combination with Compound 1, HCT116 (HCT116 cancer cells; [2]): Additivity (0.7 to 1.3); Call, anti-proliferative effect of combination with Compound 1, A549 (A549 cancer cells; [2]): Additivity (0.7 to 1.3); Call, anti-proliferative effect of combination with Compound 1, H460 (H460 cancer cells; [2]): Additivity (0.7 to 1.3) |
| CN(C)/N=N/c1[nH]cnc1C(N)=O [Dacarbazine] | – | – | – | – | – | – | Call, anti-proliferative effect of combination with Compound 1, HCT116 (HCT116 cancer cells; [2]): Additivity (0.7 to 1.3) |
| CN1CC[C@H](c2c(O)cc(O)c3c(=O)cc(-c4ccccc4Cl)oc23)[C@H](O)C1 [Flavopiridol] | – | – | – | – | – | Additivity (0.7 to 1.3) | – |
| S=c1nc[nH]c2nc[nH]c12 [Mercaptopurine] | – | – | – | – | Additivity (0.7 to 1.3) | – | Call, anti-proliferative effect of combination with Compound 1, SW620 (SW620 cancer cells; [2]): Subadditivity (1.3 to 2); Call, anti-proliferative effect of combination with Compound 1, HCT116 (HCT116 cancer cells; [2]): Additivity (0.7 to 1.3); Call, anti-proliferative effect of combination with Compound 1, H460 (H460 cancer cells; [2]): Additivity (0.7 to 1.3) |
| Nc1nc(OCc2ccccc2)c2nc[nH]c2n1 [O6-Benzylguanine] | – | – | – | – | Additivity (0.7 to 1.3) | – | – |
| CO[C@@H]1[C@H](N(C)C(=O)c2ccccc2)C[C@H]2O[C@]1(C)n1c3ccccc3c3c4c(c5c6ccccc6n2c5c31)C(=O)NC4 [PKC412] | Subadditivity (1.3 to 2) | Additivity (0.7 to 1.3) | _Additivity | – | – | Antagonism (>2) | – |
| CCCS(=O)(=O)Nc1ccc(F)c(C(=O)c2c[nH]c3ncc(-c4ccc(Cl)cc4)cc23)c1F [PLX4032] | Additivity (0.7 to 1.3) | – | Additivity (0.7 to 1.3) | Additivity (0.7 to 1.3) | – | Additivity (0.7 to 1.3) | – |
| Tunicamycin | Additivity (0.7 to 1.3) | Additivity (0.7 to 1.3) | Synergy (0 to 0.7) | – | – | Additivity (0.7 to 1.3) | – |

From patent US20220323443A1, “COMBINATION THERAPY FOR CANCER TREATMENT” (TAKEDA PHARMACEUTICAL COMPANY LIMITED, priority 2019, published 2022)
